Reference: publication PMC8953385, “2-Styrylchromones: Cytotoxicity and Modulation of Human Neutrophils’ Oxidative Burst” (Pharmaceuticals, 2022)
Blank lines part the entries; values can stand above or below the molecule they belong to.

Tests used:
human neutrophils = experiment: Annexin V/PI flow cytometric assay of neutrophils’ viability; assay type: cell-based; details: for Higher 2-SC concentration that did not affect human neutrophils’ viability: annexin V/PI assay, 40 min incubation at 37 °C
Source text: (§1) Following the Declaration of Helsinki and the approval of patient-related procedures and protocols by the Ethics Committee of Centro Hospitalar do Porto, Portugal, venous blood was collected from healthy human blood donors, after informed consent. The blood was stored into K3EDTA vacuum tubes after antecubital venipuncture of the donors. In order to obtain the isolated neutrophils, the density gradient centrifugation method was applied, as previously reported, with modifications. In brief, in a 15 mL polypropylene tube, 3 mL of histopaque 1119 were added followed by 3 mL of histopaque 1077 and finally, 4.5 mL of the collected blood were slowly added. Each tube was centrifuged at 900× g at 20 °C for 30 min, with a medium acceleration and deceleration speed. Following centrifugation, the neutrophils’ portion was harvested, and PBS was added to double the volume. The neutrophils’ suspension was then centrifuged at 850× g at 4 °C for 5 min, using a maximum acceleration and deceleration speed. The supernatant was discarded, and the neutrophils’ pellet was resuspended in PBS and afterward milli-Q water was added to lyse the residual erythrocytes. The tube was gently homogenized and after a few minutes, 3% NaCl was added to restore isotony, and then centrifuged again at 850× g at 4 °C for 5 min, using a maximum acceleration and deceleration speed. The supernatant was discarded, and a neutrophils’ pellet was obtained. After isolation, the neutrophils’ pellet was resuspended in the incubation media, tris-glucose buffer (25 mM Trizma® base, 5.5 mM D-glucose, 140 mM NaCl, 1.26 mM CaCl2, 0.81 mM MgSO4, 5.37 mM KCl, pH = 7.4). Neutrophils’ suspension was kept on ice, under soft shaking, until use. The trypan blue exclusion method was used to determine cells’ yield and viability.
(§2) The effect of the studied 2-SC on neutrophils’ viability was assessed by flow cytometry, after simultaneous staining with FITC Annexin V and propidium iodide (PI) (Figure S1), as previously reported by our research group, with modifications. After isolation, neutrophils (1 × 10^6 cells/mL) were incubated with 2-SC (up to 100.00 μM) or DMSO for 40 min, at 37 °C, in a 48-well plate. At the end of incubation, the content of each well was transferred to conical microtubes and centrifuged at 400× g at 20 °C for 5 min. After discarding the supernatant, the neutrophils’ pellet was resuspended in PBS and centrifuged under the previous conditions. Once the supernatant was removed, the pellet was resuspended in 10× diluted binding buffer, and then PI and annexin V were added. This mixture was incubated in the dark at room temperature for 15 min, and finally, 10× diluted binding buffer was added. In a flow cytometer, the fluorescence signal, of at least 10,000 cells/sample, were collected in logarithmic mode and followed in channels 1 and 3. The green fluorescence corresponding to annexin V FITC was accompanied in channel 1 and plotted as a histogram of FL1 staining, whereas the fluorescence corresponding to PI was monitored in channel 3 and plotted in the same histogram but as FL3 staining. The collected data were analyzed with the BD Accuri™ C6 software. The data analysis was restricted to the neutrophils’ population. Thus, according to the light-scattering properties of neutrophils (in a forward versus side scatter plot), a polygon gate was drawn, where debris and other blood cells were excluded. The effect of 2-SC on neutrophils’ viability was expressed as a relative percentage of apoptotic and/or necrotic cells when compared to the control (without 2-SC).

[1] = system: human neutrophils’ oxidative burst; experiment: Neutrophils’ oxidative burst, PMA stimulation, luminol chemiluminescence; assay type: cell-based; details: for inhibition at 75 µM: 75.00 µM (highest tested concentration); for inhibition at 25 µM: 25.00 µM (highest tested concentration); for IC50: PMA 160.00 nM, luminol 500.00 μM, mean ± SEM, read-out: IC50, inhibition of human neutrophils’ oxidative burst; for inhibition at 50 µM: 50.00 µM (highest tested concentration); for Times less active than C8 (oxidative burst): comparison of IC50 values with C8
Source text: as §1
The effect of 2-SC on the modulation of neutrophils’ oxidative burst was assessed after the stimulation of these cells with PMA by monitoring the oxidation of chemiluminescent probe, luminol, by the generated reactive species (Figure S2), according to a previously described methodology. Briefly, neutrophils (1 × 10^6 cells/mL) were pre-incubated with luminol (500.00 μM), and 2-SC (0.00–100.00 μM) or DMSO, at the final concentrations indicated. After this pre-incubation, at 37 °C for 5 min, PMA (160.00 nM) was added, and in turn, neutrophils’ stimulation was initiated. Kinetic readings were immediately initiated and followed for 40 min, at 37 °C, in a microplate reader. The arbitrary chemiluminescence value was taken at the peak of the curve, and the results were expressed as the inhibition percentage of luminol oxidation.
GraphPad Prism 6 software was used to plot the curves of percentage of inhibition versus concentrations of compound, from which the concentration that produces 50% of inhibition (IC50) was determined. GraphPad Prism 6 software was also used to perform all statistical analyses. […] In all cases, p-values < 0.05 were considered statistically significant. The results are expressed as mean ± standard error of the mean (SEM).

[2] = Annexin V/PI flow cytometric assay of neutrophils’ viability; assay type: cell-based, human; details: human, isolated human neutrophils, pH 7.4; 75.00 μM; representative plot, Figure 4; read-out: Viable cells [annexin V (−)/PI (−)], lower left quadrant
Source text: as §1, §2

[3] = Homo sapiens, Neutrophil, read-out: Inhibitory activity (% ± SEM), neutrophils’ oxidative burst

Compound: O=c1cc(/C=C/c2ccccc2)oc2ccccc12 [A1]
Higher 2-SC concentration that did not affect human neutrophils’ viability (human neutrophils): 75.00 µM
inhibition at 75 µM [1, 3]: < 30%

Compound: O=c1cc(/C=C/c2ccccc2)oc2cccc(O)c12 [A2]
Higher 2-SC concentration that did not affect human neutrophils’ viability (human neutrophils): 6.25 µM

Compound: O=c1cc(/C=C/c2ccccc2)oc2cc(O)ccc12 [A3]
Effect on human neutrophils’ viability (human neutrophils; 75.00 μM): showed no effect on human neutrophils’ viability
Higher 2-SC concentration that did not affect human neutrophils’ viability (human neutrophils): 75.00 µM
viability at 40 min, 75 µM [2]: 84.3%
inhibition at 75 µM [1, 3]: 53 ± 4%

Compound: COc1cccc2oc(/C=C/c3ccccc3)cc(=O)c12 [A5]
Higher 2-SC concentration that did not affect human neutrophils’ viability (human neutrophils): 6.25 µM

Compound: O=c1cc(/C=C/c2cccc(O)c2)oc2ccccc12 [A6]
Higher 2-SC concentration that did not affect human neutrophils’ viability (human neutrophils): 100.00 µM
inhibition at 100 µM ([1]; Homo sapiens, Neutrophil, 100.00 µM (highest tested concentration), read-out: Inhibitory activity (% ± SEM), neutrophils’ oxidative burst): < 30%

Compound: O=c1cc(/C=C/c2cccc(O)c2)oc2cccc(O)c12 [A7]
Higher 2-SC concentration that did not affect human neutrophils’ viability (human neutrophils): 6.25 µM

Compound: O=c1cc(/C=C/c2ccccc2O)oc2cccc(O)c12 [A8]
Higher 2-SC concentration that did not affect human neutrophils’ viability (human neutrophils): 25.00 µM
inhibition at 25 µM [1, 3]: < 30%

IC50 ([1]; Homo sapiens, Neutrophil): 7500 ± 400 nM
Compound: O=c1cc(/C=C/c2ccc(O)cc2)oc2ccccc12 [B1]
Effect on total neutrophils’ population percentage (human neutrophils; 50.00 μM): affected the total neutrophils’ population percentage
Higher 2-SC concentration that did not affect human neutrophils’ viability (human neutrophils): 25.00 µM

IC50 ([1]; Homo sapiens, Neutrophil): 4100 ± 300 nM
Compound: O=c1cc(/C=C/c2ccc(O)cc2)oc2cc(O)ccc12 [B3]
Higher 2-SC concentration that did not affect human neutrophils’ viability (human neutrophils): 25.00 µM

IC50 ([1]; Homo sapiens, Neutrophil): 3100 ± 300 nM
Compound: O=c1cc(/C=C/c2ccc(O)cc2)oc2cc(O)cc(O)c12 [B4]
Higher 2-SC concentration that did not affect human neutrophils’ viability (human neutrophils): 6.25 µM

Compound: COc1cc(O)c2c(=O)cc(/C=C/c3ccc(O)cc3)oc2c1 [B5]
Higher 2-SC concentration that did not affect human neutrophils’ viability (human neutrophils): 6.25 µM

IC50 ([1]; Homo sapiens, Neutrophil): 1000 ± 100 nM
Compound: O=c1cc(/C=C/c2ccc(O)c(O)c2)oc2ccccc12 [B6]
Higher 2-SC concentration that did not affect human neutrophils’ viability (human neutrophils): 12.50 µM
Times more active than B1 (oxidative burst) ([1]; comparison of IC50 values with B1): ~7.5 times

Compound: O=c1cc(/C=C/c2ccc(O)c(O)c2)oc2cccc(O)c12 [B7]
Effect on human neutrophils’ viability (human neutrophils; 0.38 μM): no effect on the viability was observed
Higher 2-SC concentration that did not affect human neutrophils’ viability (human neutrophils): 0.38 µM
Inhibitory activity (% ± SEM), neutrophils’ oxidative burst ([1]; 0.38 µM (highest tested concentration)): did not show an inhibitory effect
inhibition at 0.38 µM ([1]; Homo sapiens, Neutrophil, 0.38 µM (highest tested concentration), read-out: Inhibitory activity (% ± SEM), neutrophils’ oxidative burst): < 30%

IC50 ([1]; Homo sapiens, Neutrophil): 700 ± 100 nM
Compound: O=c1cc(/C=C/c2ccc(O)c(O)c2)oc2cc(O)ccc12 [B8]
Higher 2-SC concentration that did not affect human neutrophils’ viability (human neutrophils): 25.00 µM

IC50 ([1]; Homo sapiens, Neutrophil): 800 ± 100 nM
Compound: O=c1cc(/C=C/c2ccc(O)c(O)c2)oc2cc(O)cc(O)c12 [B9]
Higher 2-SC concentration that did not affect human neutrophils’ viability (human neutrophils): 12.50 µM

IC50 ([1]; Homo sapiens, Neutrophil): 1000 ± 100 nM
Compound: COc1ccc2c(=O)cc(/C=C/c3ccc(O)c(O)c3)oc2c1 [B10]
Higher 2-SC concentration that did not affect human neutrophils’ viability (human neutrophils): 6.25 µM

IC50 ([1]; Homo sapiens, Neutrophil): 800 ± 100 nM
Compound: COc1cc(OC)c2c(=O)cc(/C=C/c3ccc(O)c(O)c3)oc2c1 [B11]
Higher 2-SC concentration that did not affect human neutrophils’ viability (human neutrophils): 12.50 µM

IC50 ([1]; Homo sapiens, Neutrophil): 900 ± 300 nM
Compound: O=c1cc(/C=C/c2ccc(O)c(O)c2)oc2c(O)c(O)ccc12 [B12]
Higher 2-SC concentration that did not affect human neutrophils’ viability (human neutrophils): 12.50 µM

IC50 ([1]; Homo sapiens, Neutrophil): 1000 ± 200 nM
Compound: COc1ccc2c(=O)cc(/C=C/c3ccc(O)c(O)c3)oc2c1OC [B13]
Higher 2-SC concentration that did not affect human neutrophils’ viability (human neutrophils): 12.50 µM

Compound: COc1ccc(/C=C/c2cc(=O)c3c(OC)cccc3o2)cc1OC [C3]
Higher 2-SC concentration that did not affect human neutrophils’ viability (human neutrophils): 50.00 µM
inhibition at 50 µM [1, 3]: 54 ± 4%

IC50 ([1]; Homo sapiens, Neutrophil): 24200 ± 300 nM
Compound: COc1ccc2c(=O)cc(/C=C/c3ccc(OC)c(OC)c3)oc2c1 [C4]
Higher 2-SC concentration that did not affect human neutrophils’ viability (human neutrophils): 37.50 µM
Times less active than C8 (oxidative burst) [1]: about 14 times

Compound: COc1cc(OC)c2c(=O)cc(/C=C/c3ccc(OC)c(OC)c3)oc2c1 [C5]
Higher 2-SC concentration that did not affect human neutrophils’ viability (human neutrophils): 75.00 µM
inhibition at 50 µM [1, 3]: 54 ± 2%

IC50 ([1]; Homo sapiens, Neutrophil): 20000 ± 2000 nM
Compound: COc1ccc(/C=C/c2cc(=O)c3ccc(OC)c(OC)c3o2)cc1OC [C6]
Higher 2-SC concentration that did not affect human neutrophils’ viability (human neutrophils): 37.50 µM
Times less active than C8 (oxidative burst) [1]: ~17 times

Compound: COc1ccc(/C=C/c2cc(=O)c3ccc(OCc4ccccc4)c(OCc4ccccc4)c3o2)cc1OC [C7]
Higher 2-SC concentration that did not affect human neutrophils’ viability (human neutrophils): 25.00 µM
inhibition at 25 µM [1, 3]: < 30%

Compound: O=c1cc(/C=C/c2ccc(OCc3ccccc3)c(OCc3ccccc3)c2)oc2ccccc12 [D1]
Higher 2-SC concentration that did not affect human neutrophils’ viability (human neutrophils): 12.50 µM

Compound: COc1cc(OC)c2c(=O)cc(/C=C/c3ccc(OCc4ccccc4)c(OCc4ccccc4)c3)oc2c1 [D2]
Higher 2-SC concentration that did not affect human neutrophils’ viability (human neutrophils): 12.50 µM

Compound: COc1ccc2c(=O)cc(/C=C/c3ccc(OCc4ccccc4)c(OCc4ccccc4)c3)oc2c1OC [D3]
Higher 2-SC concentration that did not affect human neutrophils’ viability (human neutrophils): 12.50 µM

Compound: Cc1ccc(/C=C/c2cc(=O)c3ccccc3o2)cc1 [E1]
Higher 2-SC concentration that did not affect human neutrophils’ viability (human neutrophils): 25.00 µM

Compound: Cc1ccc(/C=C/c2cc(=O)c3c(O)cccc3o2)cc1 [E2]
Higher 2-SC concentration that did not affect human neutrophils’ viability (human neutrophils): 12.50 µM

Compound: O=c1cc(/C=C/c2ccc([N+](=O)[O-])cc2)oc2cccc(O)c12 [F2]
Higher 2-SC concentration that did not affect human neutrophils’ viability (human neutrophils): 12.50 µM

Compound: O=c1cc(/C=C/c2cccc(Cl)c2)oc2cccc(O)c12 [G1]
Higher 2-SC concentration that did not affect human neutrophils’ viability (human neutrophils): 12.50 µM

Compound: O=c1cc(/C=C/c2ccc(Cl)c(Cl)c2)oc2cccc(O)c12 [G3]
Higher 2-SC concentration that did not affect human neutrophils’ viability (human neutrophils): 25.00 µM
inhibition at 25 µM [1, 3]: < 30%

Compound: O=c1cc(/C=C/c2c(Cl)cccc2Cl)oc2cccc(O)c12 [G4]
Higher 2-SC concentration that did not affect human neutrophils’ viability (human neutrophils): 25.00 µM
inhibition at 25 µM [1, 3]: < 30%

Compound: COc1ccc2c(=O)c(Br)c(/C=C/c3ccccc3)oc2c1 [H1]
Higher 2-SC concentration that did not affect human neutrophils’ viability (human neutrophils): 12.50 µM

Compound: COc1cc(OC)c2c(=O)c(Br)c(/C=C/c3ccccc3)oc2c1 [H2]
Higher 2-SC concentration that did not affect human neutrophils’ viability (human neutrophils): 50.00 µM
inhibition at 50 µM [1, 3]: < 30%

Compound: COc1ccc2c(=O)c(Br)c(/C=C/c3ccc(OC)c(OC)c3)oc2c1 [H3]
Higher 2-SC concentration that did not affect human neutrophils’ viability (human neutrophils): 12.50 µM

IC50 ([1]; Homo sapiens, Neutrophil): 800 ± 100 nM
Compound: O=c1c(O)c(-c2ccc(O)c(O)c2)oc2cc(O)cc(O)c12 [Quercetin, quercetin, reference compound]
